This is an account of results in PMC10827914 (Cellular and Molecular Life Sciences: CMLS, 2024).

“And” between values parts separate entries of the source, which are not always exact repeats. Identical values can stand only once. “Also recorded” adds a separate entry of the source. Where a SMILES comes first, the peptide text is derived from it. Bridges are numbered along the chain shown (N, C = ends). Where no end group is shown, it is not given here.

The test system of one data set is rCD13. Put plainly: Proteolytic effect of rCD13 on peptide G4 (mass spectrometry). It is filed as in vitro ADME, human. Particulars: G4 Lot #B 10 mM in 60 mM Tris-HCl pH 7.4; rCD13 0, 0.2, 2 µg/mL; 0, 0.5, 16 h; 37 °C; high resolution mass spectrometry. How it is done: Peptide G4 (Lot #B, synthetized and analyzed in-house) (10 mM, in 60 mM Tris-HCl, pH 7.4) was incubated with various amounts of rCD13 (0, 0.2 and 2 µg/mL) for 0, 0.5 and 16 h, as indicated, at 37°C. The enzyme activity was stopped by adding 10% acetic acid. Each sample was then desalted using Zip-tip C18 columns (Merck Millipore), dried in a SAVANT centrifuge, resuspended in 8 µl of 10% formic acid, and analyzed by high resolution mass spectrometry, using a Q-Exactive mass spectrometer (Thermo Scientific, Bremen, Germany) equipped with a nano-electrospray ion source (Proxeon Biosystems). Full scan spectra were acquired with the resolution set to 70000 and mass range from 300 to 1500 m/z. The mass spectra were deconvoluted using the Xtract option within the QualBrowser application of the Thermo Xcalibur software v.4.2.47.

The target of data set [1] is T1, recombinant human CD13 (rCD13) (Homo sapiens, UniProt P15144).
T1 construct: consisting of the CD13 extracellular domain expressed in HEK-293 cells; His-tag; purchased Sino Biological 10051-H08H; host or cells: HEK-293 cells
Briefly: rCD13 enzyme inhibition assay, L-alanine 7-amido-4-methylcoumarin substrate. It is filed as biochemical. As to the method: Recombinant CD13 (rCD13) enzyme activity and inhibition assays were performed as described previously using L-alanine-p-nitroanilide or L-alanine 7-amido-4-methylcoumarin as substrates in 60 mM Tris–HCl, pH 7.4, or 60 mM potassium phosphate buffer, pH 7.4. Mixtures containing peptides at various concentrations, rCD13 (0.2 µg/mL), and L-alanine-p-nitroanilide substrate (0.5 mM) in 60 mM potassium phosphate buffer, pH 7.4 (total volume, 0.1 ml) were prepared and left to react for 30 min at 37 °C. The products were then analyzed using a plate reader (iMark Microplate Absorbance Reader; Bio-Rad). Alternatively, the assay was performed using 0.1 mM L-alanine 7-amido-4-methylcoumarin in 60 mM Tris–HCl, pH 7.4, as a substrate. Fluorescence intensity of methylcoumarin was measured on an Infinite 200 PRO plate reader (Tecan) using the following settings: excitation wavelength: 341 nm; emission wavelength: 441 nm; excitation bandwidth: 9; emission bandwidth: 20 nm; gain: 109 manual; number of flashes: 25; integration time: 20 µs; lag time: 0 µs; settle time: 0 ms.
The IC50 of each inhibitor was calculated by non-linear regression analysis of inhibition data using GraphPad Prism Software (GraphPad Software, Version 9.00, San Diego, CA). Steady-state enzyme kinetic analyses were performed using various concentrations of L-alanine-p-nitroanilide (0–1.5 mM) and VGCARRYCS peptide (0–900 nM). The initial velocities (Vo) were calculated from the slopes of the first 5 min of reaction. The enzyme inhibitory constant (Ki) was calculated using the competitive enzyme inhibition model in GraphPad Prism Software.
Fig. 2 G4 recognizes soluble forms of CD13, with higher affinity and selectivity than bestatin, and the membrane forms expressed on the surface of HUVEC cells. A Inhibitory effects of G4 and bestatin on the enzymatic activities of different aminopeptidases (rCD13, APA, and APB). Various amounts of G4 or bestatin were incubated with rCD13 (0.2 µg/mL in 60 mM Tris–HCl pH 7.4), APA (0.2 µg/mL in 60 mM Tris–HCl pH 7.4, 50 mM calcium chloride, 200 mM sodium chloride) or APB (0.2 µg/mL in 60 mM Tris–HCl pH 7.4, 100 mM potassium chloride) and the corresponding substrates at 0.1 mM (L-alanine-7-amido-4-methylcoumarin for rCD13, L-glutamic acid γ-(7-amido-4-methylcoumarin) for APA, and L-arginine-7-amido-4-methylcoumarin for APB). The mixtures were incubated for 30 min at 37 °C, and the cleavage of each substrate was monitored by measuring the fluorescence of methylcoumarin (λex 341 nm; λem 441 nm) using an Infinite 200 PRO plate reader (Tecan). Three independent experiments were performed for each enzyme. The results of one representative experiment for each enzyme are shown (mean ± SEM, duplicates). B Inhibitory effects of G4 and bestatin on soluble CD13 immunocaptured from human serum (sCD13) using microtiter plates coated with anti-CD13 mAb WM15. The microtiter plate was filled with a solution of mAb WM15 (5 μg/ml in DPBS) and incubated overnight at 4 °C. The plate was then washed with DPBS, blocked with 3% bovine serum albumin (BSA) in DPBS, and filled with human serum containing soluble CD13 (diluted 1:2 with DPBS containing 2% BSA). After washing with DPBS, mixtures of G4 or bestatin (0–100 µM in 60 mM Tris–HCl, pH 7.4) and L-alanine p-nitroanilide hydrochloride substrate (4.5 mM in 60 mM Tris–HCl, pH 7.4) were added and left to incubate at 37 °C for 2 h. Substrate cleavage by sCD13 dissociated from mAb WM15 was then monitored by measuring the absorbance at 405 nm in each well using a plate reader (Bio-Rad). The results of one experiment performed in triplicate are shown (mean ± SEM). C Effect of G4 on the binding of the anti-CD13 mAb WM15 to HUVEC. HUVEC were seeded at a density of 2 × 10^5 cells in 100 µL DPBS supplemented with 5% normal human serum (NHS) and incubated with a mixture of G4 peptide (0, 0.1, 1, and 10 µM) and mAb WM15 (0 or 0.13 nM) as indicated. […]

The test system of another data set is WEHI-164 fibrosarcoma. Briefly: Antitumor activity in WEHI-164 fibrosarcoma-bearing mice. The data set is classed as in vivo. How it is done: Female BALB/c mice (Charles River Laboratories, Calco, Italy), weighing 16–18 g, were subcutaneously injected into the left flank of 10^6 WEHI-164 cells (ATCC, cat. CRL-1751, Lot. 63,682,839). Dose-finding experiments were performed with groups of six mice treated with G4-TNF (4, 20, or 100 pg/dose in 100 μL of 0.9% sodium chloride containing 100 µg/ml HSA, intraperitoneally injected on day 5) or vehicle. Tumor growth was monitored daily by measuring tumor volume with calipers, as previously described. The animals were sacrificed before the tumor diameter reached 1.0–1.5 cm. To test whether the antitumor activity of G4-TNF was mediated by CD13, tumor-bearing mice (6 animals/group) were treated with a single injection of G4-TNF (100 pg/dose, i.p.) in combination with peptide CNGRC (100 µg/dose) or anti-CD13 mAb R3-63 (25 µg/dose, given 1.5 h i.p. before administration of G4-TNF) 5 days after tumor implantation.
Fig. 3 Effect of G4-TNF on tumor growth and body weight of mice bearing WEHI-164 fibrosarcomas. A Mice bearing subcutaneous WEHI-164 tumors (5–6 mice/groups) were treated 5 days after tumor implantation with a single intraperitoneal injection of G4-TNF (0, 4, 20, or 100 pg). Tumor volume and body weight after treatment were monitored daily. B Effect of mAb R3-63 (anti-murine CD13 antibody, 25 µg) and CNGRC peptide (100 µg) on the antitumor activity of G4-TNF (100 pg) (5–6 mice/group). The arrows indicate the time of treatment. *P < 0.05; **P < 0.01, by Mann–Whitney analysis of the area under the curve for each tumor, with the GraphPad Prism software (mean ± SEM)
A) Mice bearing subcutaneous WEHI-164 tumors (6 mice/groups), were treated 5-6 days after tumor implantation with a single intraperitoneal injection of murine NGR-TNF (0, 25, 50, or 100 pg). Tumor volume and body weight after treatment were monitored daily.
B) Effect of murine TNF (50 pg) on tumor growth and body weight. The arrows indicate the time of treatment (mean ± SEM).

Data set [2] concerns rCD13 (His-tagged recombinant human CD13). Briefly: rCD13 (2 µg/mL) in 60 mM Tris-HCl, pH 7.4. Conditions: 37°C, up to 16 h.
The target of data set [3] is His-tagged recombinant human CD13 (rCD13) (human) (UniProt P15144).
For data set [4], the target named is T2, His-tagged recombinant human CD13 (rCD13) (human, UniProt P15144 33-967).
T2 construct: aminopeptidase N / CD13, human, extracellular domain (soluble ectodomain); also called recombinant soluble CD13; recombinant CD13 ectodomain; source: bought: Sino Biological (cat. 10051-H08H), expressed in HEK-293 cells
Briefly: steady-state enzyme inhibition kinetics; rCD13 with L-alanine-p-nitroanilide (0-1.5 mM) and … (0-900 nM), 60 mM potassium phosphate buffer, pH 7.4, 37 °C; initial velocities of the first 5 min; competitive enzyme inhibition model (GraphPad Prism). Conditions: both partners purified.

T2 sequence (P15144 33-967): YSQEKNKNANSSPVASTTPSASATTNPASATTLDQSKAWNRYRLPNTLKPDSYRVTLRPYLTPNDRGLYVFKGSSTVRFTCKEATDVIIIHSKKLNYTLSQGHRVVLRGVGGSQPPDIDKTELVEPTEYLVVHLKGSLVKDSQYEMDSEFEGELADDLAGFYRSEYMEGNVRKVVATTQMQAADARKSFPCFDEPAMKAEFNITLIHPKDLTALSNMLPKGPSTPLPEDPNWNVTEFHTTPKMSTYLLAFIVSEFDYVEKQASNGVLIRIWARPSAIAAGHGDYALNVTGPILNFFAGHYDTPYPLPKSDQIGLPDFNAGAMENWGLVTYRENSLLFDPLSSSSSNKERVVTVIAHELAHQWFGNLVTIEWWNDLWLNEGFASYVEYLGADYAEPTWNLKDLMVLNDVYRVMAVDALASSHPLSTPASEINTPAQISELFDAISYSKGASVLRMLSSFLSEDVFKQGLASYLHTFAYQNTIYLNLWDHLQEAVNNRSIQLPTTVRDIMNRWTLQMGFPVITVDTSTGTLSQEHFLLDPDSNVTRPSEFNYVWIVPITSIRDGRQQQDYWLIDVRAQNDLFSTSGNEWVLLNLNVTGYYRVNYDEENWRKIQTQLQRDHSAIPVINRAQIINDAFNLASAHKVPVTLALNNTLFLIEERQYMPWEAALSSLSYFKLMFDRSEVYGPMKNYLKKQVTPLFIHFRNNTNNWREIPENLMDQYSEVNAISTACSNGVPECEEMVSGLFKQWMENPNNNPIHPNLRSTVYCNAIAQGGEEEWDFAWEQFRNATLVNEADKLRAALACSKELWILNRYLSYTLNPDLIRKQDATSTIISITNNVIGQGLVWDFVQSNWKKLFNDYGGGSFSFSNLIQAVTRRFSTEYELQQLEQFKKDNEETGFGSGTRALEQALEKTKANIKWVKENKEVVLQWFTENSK
T1 sequence (P15144 33-967 limits assumed): as the sequence (P15144 33-967) above
His-tagged recombinant human CD13 (rCD13) (human), sequence (P15144 33-967): as above

On to `CC(C)[C@H](N)C(=O)NCC(=O)N[C@H]1CSSC[C@@H](C(=O)N[C@@H](CO)C(=O)O)NC(=O)[C@H](Cc2ccc(O)cc2)NC(=O)[C@H](CCCNC(=N)N)NC(=O)[C@H](CCCNC(=N)N)NC(=O)[C@H](C)NC1=O` [G4] (H-VGCARRYCS-OH; disulfide 3-8), for which, in the data set with rCD13, the “Cleavage of the peptide by rCD13 (stability)” value is “cleavage of Val-1 and Gly-2 was observed only after a long incubation time (16 h) with a large amount of enzyme (2 µg/ml)”. Moreover, in data set [1] (0.1 mM L-alanine 7-amido-4-methylcoumarin, 60 mM Tris-HCl pH 7.4, fluorescence, mean ± SEM of n independent experiments, read-out: IC50: peptide concentration that inhibits 50% of rCD13 enzymatic activity), the IC50 was determined as 130 ± 20 nM. Also, in data set [1] (Fig. 2A), the “IC50 of G4 for rCD13 lower than that of bestatin” value is listed as 4–5 fold.
On to CNGRC [reference compound], for which, in the data set with WEHI-164 fibrosarcoma (G4-TNF 100 pg i.p. with mAb R3-63 25 µg (1.5 h before) or CNGRC 100 µg), the “Effect on the antitumor activity of G4-TNF” value is “markedly reduced (almost completely)”.
On to VGCARRYCS, for which, in data set [2], the cleaved bond entry is “Val1-Gly2, 16 h; also recorded: Gly2-Cys3, 16 h”.

B1: TNF: murine TNF (not linked to G4) (protein)
chain: MSTESMIRDVELAEEALPQKMGGFQNSRRCLCLSLFSFLLVAGATTLFCLLNFGVIGPQRDEKFPNGLPLISSMAQTLTLRSSSQNSSDKPVAHVVANHQVEEQLEWLSQRANALLANGMDLKDNQLVVPADGLYLVYSQVLFKGQGCPDYVLLTHTVSRFAISYQEKVNLLSAVKSPCPKDTPEGAELKPWYEPIYLGGVFQLEKGDQLSAEVNLPKYLDFAESGQVYFGVIAL
As to B1, the “Antitumor effect (tumor growth)” value in the data set on WEHI-164 fibrosarcoma (single intraperitoneal injection of 50 pg) is “totally inactive”.
For the molecule VGCGRRYCSN (disulfide 3-8 (inferred)) [peptide … (disulfide-bridged)], the IC50 of inhibition of rCD13 enzymatic activity (L-alanine-p-nitroanilide substrate) in data set [3] amounted to 2010 nM.

B2: peptide VGCARRYCS (disulfide-bridged, called G4) (peptide)
peptide: VGCARRYCS
modifications: disulfide 3-8 (inferred)
notes: optimised CD13 ligand peptide; also called free G4 peptide; source: synthetic peptide
As a reminder, the Ki is a dissociation constant, usually derived from enzyme kinetics or from competition with a known ligand. Turning to B2, the Ki in data set [4] was 21 nM and ~22 nM.
